Source: patent publication US8507483B2, “1H-pyrimidin-2-one derivatives, preparation thereof and pharmaceutical use thereof as inhibitors of AKT (PKB) phosphorylation” (Sanofi, priority 2009, dated 2013)

Legend:
[1] = system: AKT protein phosphorylated on serine 473 in PC3 human prostate carcinoma cells; assay: pAKT expression in PC3 cells measured by western blotting (test A); assay type: cell-based; conditions: PC-3, inhibition of AKT Ser473 phosphorylation, 1 to 2 hours incubation, absolute IC50, mean of two experiments
Description: (§1) The inhibitory activity of the molecules on AKT phosphorylation is measured either by western blotting using the technique described below, or by the MSD Multi-spot Biomarker detection technique from Meso Scale Discovery also described below.
Study of pAKT expression in PC3 human prostate carcinoma cells measured by western blotting (test A):
This test is based on measuring the expression of the AKT protein phosphorylated on serine 473. The phosphorylation of AKT (pAKT) is measured by western blotting in the PC3 human prostate carcinoma line (ATCC CRL-1435), using an antibody that specifically recognises pAKT-5473.
(§2) On day 1, the PC3 cells are seeded into 6-well plates (TPP, #92006) at the concentration of 0.8×10^6 cells/well in 1800 μl of DMEM medium (DMEM Gibco #11960-044) containing 10% of foetal calf serum (SVF Gibco, #10500-056) and 1% glutamine (L-Glu Gibco #25030-024), and incubated at 37° C., 5% CO2, overnight.
(§3) On day 2, the cells are incubated in the presence or absence of the test products for 1 to 2 hours at 37° C. in the presence of 5% CO2. The molecules, diluted in dimethyl sulphoxide (DMSO Sigma #D2650), are added from a 10-times concentrated stock solution, the final percentage of DMSO being 0.1%. The molecules are tested either at a single concentration of less than or equal to 10 μM, or at increasing concentrations in a range that can extend from less than 1 nM to 10 μM.
After this incubation, the cells are lysed for the preparation of the proteins. After the culture medium has been drawn off, the cells are rinsed with 1 ml of PBS (DPBS Gibco, #14190-094), recovered by scraping in 200 μl of complete HNTG buffer and transferred into a 96-well plate (Greiner #651201), and lysed for 1 h on ice. The HNTG buffer is composed of the following mixture: 50 mM hepes, 150 mM NaCl, 1% triton, 10% glycerol, with extemporaneous addition of one Mini Protease Inhibitor Cocktail tablet (Roche 1836153) and of one Phosphatase Inhibitor Cocktail tablet (Roche 104906837001) per 10 ml of buffer.
The lysate is centrifuged for 10 min at 6000 rpm. 155 μl of supernatant are recovered. 150 μl are incubated for denaturation for 5 min at 95° C. in the presence of 4× NuPAGE LDS Sample Buffer diluted 4-fold (InVitrogen ref NP0007) and of 10× NuPAGE Sample Reducing Agent diluted 10-fold (InVitrogen ref NP0009). These samples are then frozen at −20° C. 5 μl are assayed by the microBCA technique according to the technical bulletin of the MicroBCA Protein Assay Kit (Pierce #23235).
For protein separation, 20 μg of proteins are loaded on to a NU-PAGE 4-12% Bis Tris Gel 12 well (InVitrogen ref NP0322BOX) and the migration is carried out for 1 h 30 in 20×NU-PAGE MOPS SDS Running Buffer diluted 20-fold (InVitrogen ref NP0001), at 150 volts.
The gel is then transferred onto an Invitrolon PVDF membrane (Invitrogen #LC2007) permeabilised beforehand for a few seconds in ethanol (Ethanol Fischer Scientific #E/0600DF/15).
The transfer is carried out in a Biorad tank at 30 volts overnight or at 60 volts for 3 hours, in the presence of 20× NUPAGE Transfer Buffer diluted 20-fold (InVitrogen ref NP0006).
The membrane is then saturated in saturating solution composed of TBS (10× Tris Buffered Saline, Sigma #T5912, diluted 10-fold), 0.1% Tween 20 (Sigma #P5927) and 3% BSA (Bovine Serum Albumin Fraction V, Sigma #A4503) for 6 h after overnight transfer or else for 1 h after transfer for a period of 3 h.
The primary antibodies are diluted to 1/1000th for the anti-phospho AKT-Ser473 antibody (193H2, rabbit monoclonal, cat#4058 from Cell Signaling Technology) Abcam), in saturating solution composed of […], 0.1% Tween 20 and 3% BSA, and then shaken overnight at 4° C.
Two rinses for 5 min in washing solution composed of TBS and 0.1% Tween 20 are carried out before hybridisation of the secondary antibodies. […]

[2] = system: AKT protein phosphorylated on serine 473 (P-AKT-S473) in PC3 human prostate carcinoma cells; assay: pAKT expression in PC3 cells measured by MSD Multi-spot Biomarker Detection (Test B); assay type: cell-based; conditions: PC-3, inhibition of AKT Ser473 phosphorylation, 1 to 2 h incubation, MSD sandwich immunoassay, absolute IC50, mean of two experiments
Description: as §1
Where appropriate, the activity of the products is translated into approximately IC50, obtained from a dose-response curve of various concentrations tested and representing the dose giving 50% of specific inhibition (absolute IC50). Two independent experiments make it possible to calculate the mean of the IC50s. Study of pAKT expression in PC3 human prostate carcinoma cells measured by the MSD Multi-spot Biomarker Detection technique from Meso Scale Discovery (Test B): This test is based on measuring the expression of the AKT protein phosphorylated on serine 473 (P-AKT-S473), in the PC3 human prostate carcinoma line, by means of the technique based on a sandwich immunoassay using the MSD Multi-spot Biomarker Detection kit from Meso Scale Discovery: phospho-Akt (Ser473) whole cell lysate kit (#K151 CAD) or phospho-Akt (Ser473)/Total Akt whole cell lysate kit (#K151OOD).
The primary antibody specific for P-AKT-5473 (Kit #K151 CAD) is coated onto an electrode in each well of the 96-well plates of the MSD kit: after the addition of a protein lysate to each well, the signal is visualised by adding a secondary detection antibody labelled with an electrochemoluminescent compound. The procedure followed is that described in the kit.
as §2, with “96-well” for “6-well”, “#92096)” for “#92006)”, “35 000” for “0.8×10^6”, “200” for “1800”, “(FCS” for “(SVF”
as §3, with “h” for “hours”, “5% of” for “5%”, “20-times” for “10-times”
After this incubation, the cells are lysed for the preparation of the proteins. For this, after the culture medium has been drawn off, […] of complete Tris Lysis Buffer of the MSD kit containing the protease and phosphatase inhibitor solutions are added to the wells and the cells are lysed for 1 h at 4° C. with shaking At this stage, the plates containing the lysates can be frozen at −20° C. or at −80° C.
The wells of the 96-well plates of the MSD kit are saturated for 1 h at ambient temperature with the blocking solution of the MSD kit. Four washes are carried out with 150 μl of Tris Wash Buffer of the MSD kit. The lysates previously prepared are transferred into the 96-well multi-spot plates of the MSD kit and incubated for 1 h at ambient temperature, with shaking Four washes are carried out with 150 μl of Tris Wash Buffer of the MSD kit. 25 μl of the MSD sulpho-tag detection antibody solution are added to the wells and incubated for 1 h at ambient temperature, with shaking Four washes are carried out with 150 μl of Tris Wash Buffer of the MSD kit. 150 μl of Read Buffer of the MSD kit are added to the wells and the plates are read immediately on the 512400 instrument from Meso Scale Discovery.
The instrument measures a signal for each well. Wells without cells and containing the lysis buffer serve to determine the background noise that will be subtracted from all the measurements (min). The wells containing cells in the absence of product and in the presence of 0.1% DMSO are considered to be the 100% signal (max). The percentage inhibition is calculated for each concentration of test product according to the following formula: (1−((test−min)/(max−min)))×100. […]

| IC50 [1] | IC50 [2] | SMILES |
| --- | --- | --- |
| 388 nM |  | O=c1cc(N2CCOCC2)nc(Cc2nc3ccccc3o2)[nH]1 [Example 2, 2-(1,3-benzoxazol-2-ylmethyl)-6-(morpholin-4-yl)pyrimidin-4(3H)-one] |
| 1010 nM |  | O=c1cc(N2CCOCC2)nc(Cc2nc3cc(F)c(F)cc3[nH]2)[nH]1 [Example 5, 2-[(5,6-difluoro-1H-benzimidazol-2-yl)methyl]-6-(morpholin-4-yl)pyrimidin-4(3H)-one] |
|  | 961 nM | O=c1cc(N2CCOCC2)nc(Cc2nc3ccc(C(F)(F)F)cc3[nH]2)[nH]1 [Example 26, 6-(morpholin-4-yl)-2-{[6-(trifluoromethyl)-1H-benzimidazol-2-yl]methyl}pyrimidine-4(3H)-one] |
|  | 256 nM | O=c1cc(N2CCOCC2)nc(Cc2nc3cc(F)c(Cl)cc3[nH]2)[nH]1 [Example 27, 2-[(5-chloro-6-fluoro-1H-benzimidazol-2-yl)methyl]-6-(morpholin-4-yl)pyrimidin-4(3H)-one] |
|  | 585 nM | O=c1cc(N2CCOCC2)nc(Cc2nc3c(F)c(F)ccc3[nH]2)[nH]1 [Example 28, 2-[(6,7-difluoro-1H-benzimidazol-2-yl)methyl]-6-(morpholin-4-yl)pyrimidine-4(3H)-one] |
|  | 506 nM | Cc1cc2nc(Cc3nc(N4CCOCC4)cc(=O)[nH]3)[nH]c2cc1Cl [Example 29, 2-[(5-chloro-6-methyl-1H-benzimidazol-2-yl)methyl]-6-(morpholin-4-yl)pyrimidin-4(3H)-one] |
|  | 1340 nM | N#CCn1c(Cc2nc(N3CCOCC3)cc(=O)[nH]2)nc2ccccc21 [Example 30, (2-{[4-(morpholin-4-yl)-6-oxo-1,6-dihydropyrimidin-2-yl]methyl}-1H-benzimidazol-1-yl)acetonitrile] |
|  | 144 nM | O=c1cc(N2CCOCC2)nc(Cc2nc3cc(F)cc(F)c3[nH]2)[nH]1 [Example 31, 2-[(5,7-difluoro-1H-benzimidazol-2-yl)methyl]-6-(morpholin-4-yl)pyrimidine-4(3H)-one] |
|  | 206 nM | CC(c1ccccc1)n1c(Cc2nc(N3CCOCC3)cc(=O)[nH]2)nc2cc(Cl)ccc21 (stereo not drawn) [Example 32, 2-{[5-chloro-1-(1-phenylethyl)-1H-benzimidazol-2-yl]methyl}-6-(morpholin-4-yl)pyrimidine-4(3H)-one] |
|  | 142 nM | O=c1cc(N2CCOCC2)nc(Cc2nc3ccccc3n2C2CCCCC2)[nH]1 [Example 33, 2-[(1-cyclohexyl-1H-benzimidazol-2-yl)methyl]-6-(morpholin-4-yl)pyrimidin-4(3H)-one] |
|  | 208 nM | O=c1cc(N2CCOCC2)nc(Cc2nc3cc(F)c(F)c(F)c3[nH]2)[nH]1 [Example 34, 6-(morphlolin-4-yl)-2-[(5,6,7-trifluoro-1H-benzimidazol-2-yl)methyl]pyrimidin-4(3H)-one] |
|  | 115 nM | O=c1cc(N2CCOCC2)nc(Cc2nc3c(Br)cc(F)cc3[nH]2)[nH]1 [Example 35, 2-[(4-bromo-6-fluoro-1H-benzimidazol-2-yl)methyl]-6-(morpholin-4-yl)pyrimidin-4(3H)-one] |
|  | 28 nM | Cn1c(Cc2nc(N3CCOCC3)cc(=O)[nH]2)nc2ccc(Br)cc21 [Example 36, 2-[(6-Bromo-1-methyl-1H-benzimidazol-2-yl)methyl]-6-(morpholin-4-yl)pyrimidin-4(3H)-one] |
|  | 15 nM | Cn1c(Cc2nc(N3CCOCC3)cc(=O)[nH]2)nc2ccc(F)c(F)c21 [Example 37, 2-[(6,7-Difluoro-1-methyl-1H-benzimidazol-2-yl)methyl]-6-(morpholin-4-yl)pyrimidin-4(3H)-one] |
|  | 65 nM | Cn1c(Cc2nc(N3CCOCC3)cc(=O)[nH]2)nc2cc(Cl)c(Cl)cc21 [Example 38, 2-[(5,6-Dichloro-1-methyl-1H-benzimidazol-2-yl)methyl]-6-(morpholin-4-yl)pyrimidin-4(3H)-one] |
|  | 100 nM | Cn1c(Cc2nc(N3CCOCC3)cc(=O)[nH]2)nc2cc(F)c(F)c(F)c21 [Example 39, 6-(Morpholin-4-yl)-2-[(5,6,7-trifluoro-1-methyl-1H-benzimidazol-2-yl)methyl]pyrimidin-4(3H)-one] |
|  | 44 nM | O=c1cc(N2CCOCC2)nc(Cc2nc3c(O)cccc3o2)[nH]1 [Example 40, 2-[(4-hydroxy-1,3-benzoxazol-2-yl)methyl]-6-(morpholin-4-yl)pyrimidin-4(3H)-one] |
|  | 32 nM | Cn1c(Cc2nc(N3CCOCC3)cc(=O)[nH]2)nc2cccc(Br)c21 [Example 41, 2-[(7-Bromo-1-methyl-1H-benzimidazol-2-yl)methyl]-6-(morpholin-4-yl)pyrimidin-4(3H)-one] |
